Experimental data taken from patent US4146622A, “Aziridinyl quinone anti-transplanted tumor agents” (priority 1977, dated 1979).
In brackets after ≈: the same amount, converted by molar mass. Several values for one entry are separate records, joined by “and”; a condition that tells them apart may be missing. Equal values may be shown once. Entries after “also recorded” stand apart in the source; their conditions may differ. Read-outs that look alike come from different tables or passages of the source.

Columns and labels:
ependymoblastoma = assay: Intracerebral (IC) ependymoblastoma (EM) brain tumor test; format: in vivo, murine; details: for antitumor activity: IC ependymoblastoma (EM); for ILS (percentage increase in life span) / animals alive per 6 test animals on day of termination / OD (optimum dose): Table X, IC ependymoblastoma; for ILS (percentage increase in life span) / animals alive per 6 test animals on day of termination: QD1-5, at OD; for OD (optimum dose): QD1-5
Source text: ^c Ic tumor implantation, ip QD1-5 treatment schedule.
^g Number of animals alive per six test animals on day of termination
of experiment (day 99 for expt 133 and day 60 for expt 136 and 144).
A third IC transplanted mouse tumor model, the ependymoblastoma system, was also studied. This system requires intracerebral implantation of a solid tumor fragment while the IC L1210 and IC P388 systems utilize IC inoculated ascites tumor fluid. All three use IP drug treatment however. […] Cures (survivors from the group of six mice on the last day of the experiment) are indicated. Experiments 136 and 144 were terminated on day 60. Since the number of cures was about the same, the differences in T/C values in these two experiments reflect differences in the life span of the two different sets of control animals. Experiment 133 was terminated on day 99 with a resulting higher activity value.
The hydrophilic dihydroxypropylamino compound (No. 39), which was curative in the IP L1210 and P388 leukemia systems, was active but gave a large spread in ILS values (53-186%). […] Again, its hydrophilic character may present transport problems in this IC tumor system.

lymphoid leukemia L1210 [1] = assay: Intraperitoneal (IP) lymphoid leukemia L1210 transplanted mouse tumor test; format: in vivo, murine; details: for animals alive per 6 test animals on day of termination / survivors (number in parentheses) IP L1210: day 30; for ILS (%) IP L1210 / survivors (number in parentheses) IP L1210: Table XI; for ILS (%) IP L1210: outstanding activity; for survivors (number in parentheses) IP L1210: per 6 test animals; for cures: survivors on day 30, L1210
Source text: ^(a) Day 1-9 treatment schedule (9 injections)
^(b) Day 1,5,9 treatment schedule (3 injections)
^(c) Day 1 only treatment schedule (1 injection)
^(f) Percentage increase in life span of treated animals [(treated
survival .div. control survival) × 100%] - 100%

B16 melanocarcinoma = assay: Intraperitoneal B16 melanocarcinoma transplanted mouse tumor test; format: in vivo, murine; details: for antitumor activity: B16 melanoma; for OD (optimum dose) / ILS (percentage increase in life span): Table IX; for OD (optimum dose): B16, QD1-9; for ILS (percentage increase in life span): B16, QD1-9, at OD
Source text: (§1) ^b Ip tumor implantation, ip QD1-9 treatment schedule.
(§2) The L1210, P388 and B16 test systems described in Table II utilize intraperitoneal (IP) tumor implantation and IP drug treatment while the Lewis lung system employs subcutaneous tumor implantation and IP treatment.
(§3) Aqueous saline solution (0.9%) was used as the drug vehicle. Normally, five doses were employed per experiment with the top dose chosen to produce toxicity. The lower doses were 50% of each preceeding dose.
(§4) Consistent with NCI antitumor test protocols, intraperitoneal (IP) administration of the drug was employed with all five tumor systems investigated. Tumor implantation was IP in the systems designated IP leukemia L1210 and P388 as well as B16 melanoma.

lymphoid leukemia L1210 [2] = assay: Intracerebral (IC) lymphoid leukemia L1210 test; format: in vivo, murine; details: for antitumor activity: IC L1210; for OD (optimum dose): IC L1210, QD1-9
Source text: ^b Ic tumor implantation, ip QD1-9 treatment schedule.
The L1210, P388 and B16 test systems described in Table II utilize intraperitoneal (IP) tumor implantation and IP drug treatment while the Lewis lung system employs subcutaneous tumor implantation and IP treatment. All three CNS tumor models (Table III) use intracerebral (IC) tumor implantation and IP treatment.
Consistent with NCI antitumor test protocols, intraperitoneal (IP) administration of the drug was employed with all five tumor systems investigated. Tumor implantation was IP in the systems designated IP leukemia L1210 and P388 as well as B16 melanoma. Intracerebral (IC) tumor implantation was utilized in the IC L1210 and ependymoblastoma tumor systems.

[3] = Room temperature water solubility; format: physicochemical
Description: In the following examples, all melting points are uncorrected and were recorded on a Thomas-Hoover capillary melting point apparatus. Elemental analyses were performed by NIAMDD, NIH, Bethesda, Maryland. Fluoranil, ethyleneimine and 2l -methylethyleneimine were obtained commerically. […] New compounds were identified by nmr and ir spectroscopy. In the tetraamino derivatives, the methylene protons of the aziridine rings usually occurred as a singlet at δ2.0-2.2 in CDCl3 or DMSO-d6. This absorption appeared at δ2.40 (CDCl3) for compound 11. Carbonyl absorption frequencies (nujol mull) occurred in the range 1620-1640 cm^-1 for the tetraamino compounds. Satisfactory elemental analyses (+0.4% of calculated values) are indicated by elemental symbols in Table VII. Room temperature water solubilities were determined by the incremental addition (pipet) of water to a weighed amount of compound with shaking. The solubility values in Table VII must be considered as approximate.

[4] = test system: IP ascites tumor systems (leukemia L1210 and P388); assay: IP ascites tumor systems (leukemia L1210 and P388); format: in vivo, murine
Source text: The criterion for minimum activity, %ILS, is defined here as follows: Intraperitoneal and intracerebral leukemia L1210 and intraperitoneal leukemia P388, 25%; intraperitoneal B16 melanoma and intracerebral ependymoblastoma, 40%. Consistent with NCI antitumor test protocols, intraperitoneal (IP) administration of the drug was employed with all five tumor systems investigated. Tumor implantation was IP in the systems designated IP leukemia L1210 and P388 as well as B16 melanoma. Intracerebral (IC) tumor implantation was utilized in the IC L1210 and ependymoblastoma tumor systems.

[5] = Octanol/H2O partition coefficient (log P); format: physicochemical; details: Table VII, octanol/H2O; for logP: octanol/water
Source text: ^(b) Octanol/H2 O values determined by C. Hansch and M. Yamakawa

[6] = test system: P388 lymphocytic leukemia; assay: Intraperitoneal (IP) lymphocytic leukemia P388 transplanted mouse tumor test; format: in vivo, murine; details: for antitumor activity: IP P388; for cures: P388, 30 day survivors, QD1-9; for OD (optimum dose) / ILS (percentage increase in life span) / animals alive per 6 test animals on day of termination: Table IX; for OD (optimum dose): IP P388, QD1-9; for ILS (percentage increase in life span) / animals alive per 6 test animals on day of termination: IP P388, QD1-9, at OD; for animals alive per 6 test animals on day of termination / survivors (number in parentheses) P388: day 30; for survivors (number in parentheses) P388: Table XI, per 6 test animals
Source text: as §1, §2, §3, §4

[7] = Table VIII, IP L1210, Day 1 only (1 injection)
[8] = Table VIII, IP L1210, Q4D(1,5,9) (3 injections)
[9] = Table VIII, IP L1210, QD1-9 (9 injections)
[10] = Table X, IC L1210, QD1-9, at OD
[11] = water, Table VII, room temperature, approximate, read-out: Approx. H2O Sol.
[12] = Table VIII, IP L1210, Q4D(1,5,9), at OD
[13] = Table VIII, IP L1210, QD1-9, at OD

Row | SMILES | antitumor activity (ependymoblastoma) | ILS (percentage increase in life span) (ependymoblastoma) | animals alive per 6 test animals on day of termination (ependymoblastoma; day 60) | OD (optimum dose) (lymphoid leukemia L1210 [1]; [7]) | OD (optimum dose) (lymphoid leukemia L1210 [1]; [8]) | OD (optimum dose) (lymphoid leukemia L1210 [1]; [9]) | ILS (%) IP L1210 (lymphoid leukemia L1210 [1]) [%] | survivors (number in parentheses) IP L1210 (lymphoid leukemia L1210 [1]) | cures (lymphoid leukemia L1210 [1]) | ILS (percentage increase in life span) (B16 melanocarcinoma) | antitumor activity (lymphoid leukemia L1210 [2]) | OD (optimum dose) (lymphoid leukemia L1210 [2]; Table X) | ILS (percentage increase in life span) (lymphoid leukemia L1210 [2]; [10]) | solubility [3, 11] [mg/mL] | antitumor activity [4] | OD (optimum dose) [6] | ILS (percentage increase in life span) [6] | animals alive per 6 test animals on day of termination [6] | survivors (number in parentheses) P388 [6] | OD (optimum dose) (ependymoblastoma) | further results
1 | O=C1C(NCC(O)CO)=C(N2CC2)C(=O)C(NCC(O)CO)=C1N1CC1 (stereo not shown) [Compound 39] | moderate to good EM activity | 99% and 53% | 1 | 4.0 mg/kg/injection and 2.0 mg/kg/injection | 4.0 mg/kg/injection and 8.0 mg/kg/injection | 4.0 mg/kg/injection and 2.0 mg/kg/injection | 206 | 5 | produced cures | 50% and 42% | marginal | 4.0 mg/kg/injection | 41% and 43% | 30 (≈ 81.4 mM) | curative; also recorded: probably the most active compound | 4.0 mg/kg/injection | 143% and 141% | 6 and 4 | 6 | – | ILS values (spread) (ependymoblastoma; EM, repeat tests): 53-186%; maximum ILS (lymphoid leukemia L1210 [1]; IP L1210): > 200%; antitumor activity (lymphoid leukemia L1210 [1]; IP L1210, tetraaminobenzoquinone series (Table VIII)): Excellent activity; animals alive per 6 test animals on day of termination (lymphoid leukemia L1210 [1]; Table VIII, IP L1210, Day 1 only, at OD): 4; cures (lymphoid leukemia L1210 [1]; listed as dihydroxypropylamino): Multiple cures; antitumor activity (B16 melanocarcinoma): active; OD (optimum dose) (B16 melanocarcinoma): 4.0 mg/kg/injection and 6.0 mg/kg/injection; ILS (%) B16 (B16 melanocarcinoma; Table XI, outstanding activity): 50%; log P [5]: -1.97; antitumor activity [6]: very active; cures [6]: multiple cures
2 | O=C1C(N2CCN(CCO)CC2)=C(N2CC2)C(=O)C(N2CCN(CCO)CC2)=C1N1CC1 [Compound 47] | – | 75% | – | 4.0 mg/kg/injection | 4.0 mg/kg/injection and 2.0 mg/kg/injection | 1.0 mg/kg/injection and 0.5 mg/kg/injection | – | 3 | produced cures | 22% | marginal | 2.0 mg/kg/injection and 1.5 mg/kg/injection | 43% and 41% | 20 (≈ 44.8 mM) | most active; also recorded: superior | 0.5 mg/kg/injection and 1.0 mg/kg/injection | 149% and 143% | 3 and 6 | 3 | 1.0 mg/kg/injection | animals alive per 6 test animals on day of termination (lymphoid leukemia L1210 [1]; [12]): 3 and 4; T - C (average weight change of test group minus control) (lymphoid leukemia L1210 [1]; Table VIII, IP L1210, QD1-9, at OD, day 5): -1.7 grams; animals alive per 6 test animals on day of termination (lymphoid leukemia L1210 [1]; [13]): 1; T - C (average weight change of test group minus control) (lymphoid leukemia L1210 [2]; Table X, IC L1210, QD1-9, at OD, day 5): -1.4 grams; logP [5]: -0.75; antitumor activity [6]: very active; cures [6]: multiple cures
3 | NC1=C(N2CC2)C(=O)C(N)=C(N2CC2)C1=O [Compound 33, 2,5-Dizairidinyl-3,6-diamino-1,4-benzoquinone] | among the most active materials | 215% and 177% | 4 and 6 | 1.0 mg/kg/injection and 0.5 mg/kg/injection | – | 0.4 mg/kg/injection and 0.3 mg/kg/injection | 161 | 3 | – | 31% and 19% | most active; also recorded: significant activity | 0.3 mg/kg/injection | 60% and 59% | < 0.1 | active | 0.2 mg/kg/injection | 171% and 156% | 1 | 1 | 0.2 mg/kg/injection | survivors (number in parentheses) EM (ependymoblastoma; Table XI, per 6 test animals, day 60): 6; ILS (percentage increase in life span) (lymphoid leukemia L1210 [1]; [12]): 161% and 124%; animals alive per 6 test animals on day of termination (lymphoid leukemia L1210 [1]; [12]): 3 and 2; ILS (percentage increase in life span) (lymphoid leukemia L1210 [1]; [13]): 115% and 100%; ILS (%) IC L1210 (lymphoid leukemia L1210 [2]; Table XI, outstanding activity): 60%; solubility [3]: insoluble in any solvent; also recorded: exceptionally insoluble
4 | CN(CCO)C1=C(N2CC2)C(=O)C(N(C)CCO)=C(N2CC2)C1=O [Compound 42] | – | 84% and 69% | – | – | 0.4 mg/kg/injection and 0.2 mg/kg/injection | 1.5 mg/kg/injection | 114 | 1 | – | 47% and 31% | – | 4.0 mg/kg/injection and 2.0 mg/kg/injection | 45% and 32% | 60 (≈ 178 mM) | – | 1.6 mg/kg/injection and 0.8 mg/kg/injection | 162% and 145% | – | – | 0.4 mg/kg/injection and 0.2 mg/kg/injection | animals alive per 6 test animals on day of termination (lymphoid leukemia L1210 [1]; [13]): 1; antitumor activity (B16 melanocarcinoma): approached minimal reproducible activity; OD (optimum dose) (B16 melanocarcinoma): 0.8 mg/kg/injection; logP [5]: -0.38
